PubChem BioAssay AID1320 (NMMLSC, 2008)
Active and inactive are the calls of the source. No rule for the calls is given here.

Biological target: Bcl-2-related protein A1 (Homo sapiens) (UniProt Q16548)
Assay: inhibitors of Bim binding to Bfl-1, dose response, biochemical, multiplexed, bead-based flow cytometry (AID 1320); as to percent span (inhibition): test concentration not given here
Conditions: Bim peptide-Bfl-1 binding, fluorescence; for percent span (inhibition): hits give high values

Bcl-2-related protein A1 (Homo sapiens), sequence (Q16548 whole entry, looked up): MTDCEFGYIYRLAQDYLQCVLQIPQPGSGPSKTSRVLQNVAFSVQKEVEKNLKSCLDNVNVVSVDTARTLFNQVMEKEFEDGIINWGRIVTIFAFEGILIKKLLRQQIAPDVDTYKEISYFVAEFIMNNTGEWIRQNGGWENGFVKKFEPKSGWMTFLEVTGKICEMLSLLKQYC

Compound	percent span (inhibition)	EC50
CC1CC2=C(NC(=S)NC2c2ccccc2F)/C(=C/c2ccccc2F)C1 (stereo not drawn)	inactive	
CCOc1ccccc1NC(=O)CSc1ccc2nnc(-c3cccnc3)n2n1	inactive	
Cc1ccc(C)n1-c1cccc(C(=O)O)c1	inactive	
Cc1cc(NC(=O)CCSc2ccccc2)ccc1Br	inactive	
CCN(CC)c1ccc(NC(=O)c2ccccc2)cc1S(=O)(=O)Nc1ccccc1OC	inactive	
O=C(N/N=C/c1cccnc1)c1cccc(S(=O)(=O)N2CCCC2)c1	inactive	
Cc1ccc(-c2cc(C(=O)Nc3cc(C(=O)O)ccc3C)c3ccccc3n2)cc1	inactive	
COc1ccc(C2=Nn3c(nnc3-c3ccco3)SC2)cc1OC	inactive	
COCCN=c1scc(-c2cccs2)n1/N=C/c1ccc(O)c(O)c1O	inactive	
CCN(CC)c1ccc(NC(=O)COc2ccccc2C#N)cc1S(=O)(=O)Nc1ccccc1OC	inactive	
N/C(=N\N=C/c1ccc(Br)cc1)N/N=C\c1ccc(Br)cc1	inactive	
COC(=O)Cc1cc(=O)[nH]c(Nc2nc3ccccc3o2)n1	inactive	
Cc1ccc2c(C)c(C(=O)Nc3nnc(C)s3)oc2c1	inactive	
CN(Cc1ccccc1)c1nc2c(c(=O)[nH]c(=O)n2C)n1C	inactive	
COc1ccc(NC(=O)c2ccc(CN3CCN(c4ccccc4)CC3)cc2)cc1	inactive	
O=C(/C=C/c1c(F)cccc1Cl)Nc1ccncc1	inactive	
COCCNC(=S)Nc1cc(OC)c(OC)cc1C#N	inactive	
Cc1ccc(N=Cc2c(O)n(-c3ccc4c(c3)OCO4)c(=O)c3ccccc23)cc1	inactive	
Cc1cc(C)n(CC(=O)N/N=C/c2cccc([N+](=O)[O-])c2)n1	inactive	
CCOC(=O)c1nc(Nc2ccc(N3CCC(C)CC3)cc2)c2ccccc2n1	inactive	
COc1ccc(NC(=O)Cc2c(F)cccc2Cl)c(OC)c1	inactive	
O=C(Nc1nnc(C2CC2)s1)C1Cc2ccccc2CN1S(=O)(=O)c1ccccc1F (stereo not drawn)	inactive	
CC1(C)CC(NC(=O)COc2ccc([N+](=O)[O-])cc2)CC(C)(C)N1	inactive	
Cc1ccc(-c2cc(C(=O)OCC(=O)N(C)C3CCS(=O)(=O)C3)c3ccccc3n2)o1 (stereo not drawn)	inactive	
C/C(=N\NC(=O)Cn1nc(C)c([N+](=O)[O-])c1C)c1ccc(O)cc1	inactive	

Compound	percent span (inhibition)	EC50
Cn1c(N)c(C(=O)COC(=O)c2cc(-c3ccco3)nc3ccccc23)c(=O)n(C)c1=O	inactive	
CCOC(=O)CCCNC(=O)c1cncc(O)c1	inactive	
Cc1ccc(S(=O)(=O)N(C)CC(=O)N2CCc3ccccc32)cc1	inactive	
COc1cc(/C=C2/NC(=O)N(Cc3ccccc3F)C2=O)ccc1O	inactive	
Cn1c(OCc2cccnc2)nc2c1c(=O)n(Cc1ccccc1)c(=O)n2C	inactive	
O=C1NC(=S)S/C1=C/c1ccc(N2CCOCC2)o1	inactive	
CCNC(=S)Nc1ccc(OCC)cc1	inactive	
COc1ccc(-n2c(SCC(=O)Nc3ccc(C(=O)O)cc3)nnc2-c2cccs2)cc1	inactive	
O=C(O)CC/C(=C\c1cc([N+](=O)[O-])ccc1Cl)c1nc2ccccc2s1	inactive	
CCCCCCc1cc2cc(C(=O)Nc3ccccc3)c(=O)oc2cc1O	inactive	
CCn1c(SCC(=O)Nc2ccccc2-c2ccccc2)nnc1-c1ccoc1C	inactive	
COC(=O)CCC(=O)Nc1sc(C)c(C)c1C(N)=O	inactive	
Cc1ccccc1/C=N/Nc1ccnc2cc(Cl)ccc12	inactive	
Cc1ccc2c(c1)C1CN(C)CCC1N2C(=O)Nc1cccc(Cl)c1 (stereo not drawn)	inactive	
O=C(C1=NN[C@@H]2C(=O)N(c3ccccc3C(F)(F)F)C(=O)[C@H]12)c1ccc2ccccc2n1	inactive	
COc1cccc2c(SCC(=O)N/N=C/c3ccccc3)cc(C)nc12	inactive	
CNC(=O)/C(C#N)=C/c1c(N(Cc2ccccc2)Cc2ccccc2)nc2c(C)cccn2c1=O	inactive	
Cc1ccc(Nc2nc(CSc3nnc(-c4cccnc4)n3-c3ccccc3C)cs2)cc1	inactive	
CCOC(=O)c1nc(Nc2ccc(Nc3ccccc3)cc2)c2ccccc2n1	inactive	
O=C(Nc1cccc(Cl)c1)Nc1ccc(Cl)cn1	inactive	
CCOC(=O)C1=C(CC)Nc2ccccc2N=C1NC(=O)c1ccc(S(=O)(=O)N2CCOCC2)cc1	inactive	
O=C(CSc1nnc(-c2ccco2)n1Cc1ccccc1)c1ccccc1	inactive	
CN(C(=O)NC1CCCCC1)c1ccccc1	inactive	
CCCOc1ccc(-c2c(C(=O)N/N=C/c3ccc(OC)cc3)nnn2-c2nonc2N)cc1	inactive	
CC(C)c1ccc(C2CC(c3ccc(Br)cc3)=NN2C(N)=S)cc1 (stereo not drawn)	inactive	

Compound	percent span (inhibition)	EC50
O=C(O)c1ccc(NS(=O)(=O)c2ccc3c(c2)C(=O)c2ccccc2C3=O)cc1	inactive	
CCSc1nnc(NC(=O)c2c(-c3ccccc3Cl)noc2C)s1	inactive	
CCc1nnc(NC(=O)CSc2nnc(COc3ccc(C)cc3)n2-c2ccccc2)s1	inactive	
COCCN=c1scc(-c2ccco2)n1/N=C/c1ccc(O)c(O)c1O	inactive	
Cc1cc(Cl)c(S(=O)(=O)NCC2CCCO2)cc1OCC(N)=O (stereo not drawn)	inactive	
Cc1cc(N2CCN(C)CC2)nc2ccc(NC(=S)N3CCN(c4ccc(F)cc4)CC3)cc12	inactive	
O=C(c1cnccn1)N1CCN(c2ccccc2F)CC1	inactive	
CN(C)S(=O)(=O)N(CC(=O)Nc1ccccc1C(F)(F)F)c1ccccc1	inactive	
O=C(Nc1ccccn1)c1cc2ccccc2o1	inactive	
Cn1c(CCNC(=O)C2CCCCC2)nc2cc(NC(=O)c3cccs3)ccc21	inactive	
CN1/C(=C\C(=O)Nc2ccc(Cl)cc2)C(C)(C)c2ccccc21	inactive	
CSc1ccccc1NC(=O)CN(C)CC(=O)Nc1ccc(N2CCOCC2)cc1	inactive	
CCOc1cc(/C=N/NC(=O)c2cccs2)cc([N+](=O)[O-])c1O	inactive	
Cc1cccc(N2C(S)=C(C#N)C(=O)NC2c2cccs2)c1 (stereo not drawn)		inactive
O=C1c2ccccc2-c2onc3ccc(NCCCn4ccnc4)c1c23	inactive	
COc1ccc2oc(-c3ccccc3)c(C(=O)N3CCOCC3)c2c1	inactive	
Clc1ccc2c(N/N=C/c3ccc(Br)cc3)ccnc2c1	inactive	
Nc1ccc(N2CCN(CCCCN3C(=O)C4CCCN4C3=O)CC2)cc1 (stereo not drawn)	inactive	
COc1cc(/C=N/NC(=O)c2ccc([N+](=O)[O-])cc2Cl)cc(Br)c1O	inactive	
COc1cc(NC(=S)NCCCO)c(OC)cc1Cl	inactive	
CCOc1cc(/C=N/NC(N)=O)ccc1OCC(=O)Nc1ccc(C)c(C)c1	inactive	
CCOc1ccc(NCc2ccccc2OCc2cccc(F)c2)cc1	inactive	
CCC(=O)N(CC)C1=C(O)c2ccccc2C(=O)C1=O		80 nM
CCOC(=O)c1sc(NC(=O)c2ccncc2)c(C#N)c1C	inactive	
COc1ccc(CN(CC(=O)NC2CCCC2)C(=O)CCC(=O)Nc2cc(C)on2)cc1	inactive	

Compound	percent span (inhibition)	EC50
COc1ccc2nc(C)cc(SCC(=O)N/N=C/c3ccc(O)cc3O)c2c1	inactive	
Cc1nc2cc(F)ccc2n1C1CCN(C(=O)c2c(F)cccc2F)CC1	inactive	
CCOc1ccccc1C(=O)NC1CC2CCCC(C1)N2C1CC1 (stereo not drawn)	inactive	
CCc1cccc(CC)c1NC(=S)N1CCn2cccc2C1c1cccnc1 (stereo not drawn)	inactive	
O=C(c1ccc(CNS(=O)(=O)c2ccc(Br)cc2)cc1)N1CCCC1	inactive	
CNC(=S)N/N=C/C1=CCC2CC1C2(C)C (stereo not drawn)	inactive	
COc1ccc(S(=O)(=O)NCCSc2ccc(Cl)cc2)cc1OC	inactive	
CCOC(=O)c1nn(-c2ccccc2)c(C#N)c1N	inactive	
COc1ccc(CC(=O)Nc2ccc(C(=O)Nc3nccs3)cc2)cc1OC	inactive	
CC1(C)SC(=S)N(NC(=O)Nc2ccccc2)C1N(O)C(=O)Nc1cccc2ccccc12 (stereo not drawn)	inactive	
O=C(/C=C/c1ccc(-c2ccccc2[N+](=O)[O-])o1)c1ccc(F)cc1	inactive	
Cc1cc(NC(=O)CCCC(=O)NCc2ccccc2)no1	inactive	
CN(CCc1ccccn1)C(=O)CCC1CCCN(C(=O)NC2CCCCC2)C1 (stereo not drawn)	inactive	
Fc1ccccc1-n1cc(-c2ccccc2)[nH]c1=S	inactive	
CC1=CC(=O)c2ccccc2C1=O	inactive	
FC(F)(F)c1ccc2c(c1)C1C=CCC1C(c1ccncc1)N2 (stereo not drawn)	inactive	
Cc1ccc(NC(=O)C/C(N)=N/OC(=O)c2ccccc2)cc1	inactive	
CC1=NN(c2ccc(C)cc2)C(=O)/C1=C\c1ccc(Br)s1	inactive	
O=C(C1=NN(c2ccccc2)C2C(=O)N(c3ccccc3)C(=O)C12)c1ccccc1 (stereo not drawn)		1360 nM
S=C1NC2=C(CCC/C2=C\c2ccccc2)C(c2ccccc2)N1 (stereo not drawn)	inactive	
COc1ccc(NC(=O)c2ccc3c(c2)NC(=O)CS3)cc1S(=O)(=O)Nc1ccc(Br)cc1	inactive	
O=C(N/N=C/c1ccc(O)c(O)c1O)/C(=C/c1ccc([N+](=O)[O-])cc1)NC(=O)c1ccccc1		5220 nM
CNC(=O)c1sc(-c2ccccn2)nc1C	inactive	
